These are literature values, as cited in patent US6406894B1, “Process for preparing polyvalent and physiologically degradable carbohydrate-containing polymers by enzymatic glycosylation reactions and the use thereof for preparing carbohydrate building blocks” (Glycorex AB, priority 1992, dated 2002).

In the data set the target is T1, E-selectin-IgG (Homo sapiens, UniProt P16581).
T1 construct: soluble fusion proteins formed between the extracytoplasmic domain of E- or P-selectin together with the constant region of a human immunoglobulin of subclass IgG1; made in house; host or cells: COS-7 cells, transient transfection with DEAE-dextran; the culture supernatant was used and captured on plates coated with anti-human IgG
As to conditions: comparative value, c.f. EPA 93 119 098.7; read-out: Comparative value: IC50 of HL60 cell adhesion to E-selectin-IgG.

T1 sequence (P16581 with tags, fused parts or gaps): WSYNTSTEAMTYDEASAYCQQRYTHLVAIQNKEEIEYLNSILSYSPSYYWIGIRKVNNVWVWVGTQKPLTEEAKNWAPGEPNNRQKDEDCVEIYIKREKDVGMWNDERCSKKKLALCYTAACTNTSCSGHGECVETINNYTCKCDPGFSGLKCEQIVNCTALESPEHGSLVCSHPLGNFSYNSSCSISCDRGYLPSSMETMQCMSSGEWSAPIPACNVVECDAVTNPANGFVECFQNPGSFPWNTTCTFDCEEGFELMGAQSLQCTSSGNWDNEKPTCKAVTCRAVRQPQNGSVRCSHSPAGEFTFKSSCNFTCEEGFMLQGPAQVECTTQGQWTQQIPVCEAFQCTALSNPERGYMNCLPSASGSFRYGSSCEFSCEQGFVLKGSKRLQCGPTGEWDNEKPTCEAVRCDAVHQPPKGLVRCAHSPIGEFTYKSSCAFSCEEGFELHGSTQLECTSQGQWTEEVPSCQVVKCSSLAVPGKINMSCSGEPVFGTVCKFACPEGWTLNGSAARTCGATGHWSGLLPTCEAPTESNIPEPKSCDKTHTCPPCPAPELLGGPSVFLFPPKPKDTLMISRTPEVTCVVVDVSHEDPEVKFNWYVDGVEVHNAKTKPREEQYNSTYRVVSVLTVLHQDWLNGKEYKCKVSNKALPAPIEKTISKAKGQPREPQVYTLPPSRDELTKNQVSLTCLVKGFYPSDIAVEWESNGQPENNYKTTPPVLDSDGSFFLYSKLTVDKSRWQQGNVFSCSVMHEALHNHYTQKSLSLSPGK

With `CC(=O)NC1C(O)CC(OC2C(O)C(CO)OC(OC3C(CO)OC(OCCCCCCN)C(NC(C)=O)C3OC3OC(C)C(O)C(O)C3O)C2O)(C(=O)O)OC1C(O)C(O)CO` (stereo not shown) [Sialyl-Le^x—O(CH2)6NH2], the half-inhibitory concentration (IC50) – broadly, the concentration that gives 50% inhibition – is 1 mM.
